Peptide text beside a SMILES is read from it. * marks the point of attachment. Cbz = O=C(OCc1ccccc1)*
Tests used:
proteasome = test: Proteasome inhibition after NQO1 siRNA knockdown in T24 cells, Western blot; type: cell-based, human; details: NQO1 siRNA 24 h then MG-132 6 h, FIG. 6C
Description: Cell culture and Western blots. Cells were cultured in appropriate media (DMEM+1% p/s+10% FBS) and subcultured as necessary. Tissue homogenates were prepared by removing whole bladders from freshly-sacrificed mice killed with isoflurane inhalation and lysing tissue as a 10% homogenate in ice-cold RIPA buffer (50 mM Tris-Cl, pH 7.4, 150 mM NaCl, 1% NP-40, 1 mM EDTA, 0.5% Na Deoxycholate, and 1% Triton X100 with 1 mM PMSF and 1× Protease Inhibitor Cocktail (Complete, Roche)) using glass and Teflon pestle system, and further clarified via centrifugation at 14000 rpm at 4 degrees for 10 minutes. Homogenates were stored at −80° C. until use. Western blotting was performed essentially according to Towbin H, T. Staehelin, J. Gordon, “Electrophoretic transfer of proteins from polyacrylamide gels to nitrocellulose sheets: procedure and some applications,” Proc Natl Acad Sci USA, v76, pp 4350-4354, 1979.
(§1) FIG. 6A through FIG. 6E are Western blot images that illustrate example NQO1 regulation of energy metabolic regulator factor PGC1α in a bladder of a mouse model for PBS compared to wild-type mouse, according to an embodiment. FIG. 6A is a set of Western blot images that illustrate example relative occurrence of proteins in bladders from wild type mice (left) and NQO1−/− mice (right). Bladders from wild type and NQO1−/− mice were immunoblotted and probed with antibodies as indicated: for NQO1 in blot image 601; for AMPK in blot image 603; for CREB in blot image 605; and, for control GAPDH in blot image 607. FIG. 6B is a set of Western blot images that illustrate example relative occurrence of proteins in T24 human bladder carcinoma cells transfected with control (column C, 100 nM control siRNA) or NQO1-specific siRNA (columns 10, 50 and 150 nM NQO1 siRNA) for 24 h and then immunoblotted with indicated antibodies: for NQO1 in blot image 611; for CREB in blot image 613; for AMPK in blot image 615; for PGC1α in blot image 617; and, for control GAPDH in blot image 619. […]

[1] = test system: NQO1 and 20S proteasome interaction with CREB and AMPK in T24; test: Immunoprecipitation of CREB and AMPK from T24 cells incubated with B[α]P; type: cell-based, human; details: B[α]P 0, 10 and 100 nM, 16 h
Description: Immunoprecipitation. Human bladder carcinoma T24 cell line was cultured in DMEM+10% FBS+1% p/s at 37 degrees in 5% carbon dioxide before IP studies. Cells were incubated with chemicals as necessary and washed 3× in PBS on ice. Cells were scraped into microfuge tubes using RIPA buffer and protein A/G beads (SANTA CRUZ BIOTECH™ of Santa Cruz, Calif.) were equilibrated with 1 mg aliquots for 1 h. After equilibration, beads were removed and lysates were incubated o/n with 1:100 of relevant antibodies, and next day incubated with 30 microliters A/G beads for 1 h before 3× RIPA buffer wash and boiling 5 mins.
as §1, with “619. FIG. 6C is a set of Western blot images that illustrate example relative occurrence of proteins in T24 human bladder carcinoma cells transfected with control (column C, 100 nM control siRNA) or NQO1-specific siRNA (columns 50 and 100 nM NQO1 siRNA) for 24 h and then incubated for 6 h with vehicle (signified by -) or proteasome inhibitor MG-132 (signified by +) before lysis and separation via SDS-PAGE. The samples were probed with the antibodies indicated: for NQO1 in blot image 621; for CREB in blot image 623; for AMPK in blot image 625; for PGC1α in blot image 627; and, for control GAPDH in blot image 629. FIG. 6D and FIG. 6E are sets of Western blot images that illustrate example relative occurrence of proteins in T24 cells that were incubated for 16 h with B[α]P at concentrations of 0, 10 and 100 nanoMoles (nM, 1 nM=10^−9 Moles) and then immunoprecipitated with antibodies against CREB (in FIG. 6D) and AMPK (in FIG. 6E) overnight. IgG was used as immunoprecipitation control.” for “619.”

[2] = test system: wild-type and NQO1−/− bladder cells; test: Ex vivo bladder cell culture, B[α]P-induced ROS (DCF fluorescence); type: cell-based, mouse
Description: Ex-vivo cell culture and chemical treatment. Whole bladders from age-matched female wild-type and NQO1−/− 24 weeks-old mice were excised from euthanized mice and minced in a 10 cm dish with a razorblade. Pieces were suspended in microfuge tubes containing 500 microliters of 1% […] reconstituted in PBS and incubated at 37 degrees with 700 rpm shaking for 45 minutes to dissociate cells from tissue. Tubes were centrifuged at 500 g for 3 minutes to pellet cells, and resuspended in full cell culture media. Cells were plated in 8-well tissue culture chamber slides (e.g., from LAB-TEK™) with cells from one bladder equally divided into one 8-well slide, into 1 mL media total volume. After 2-4 days of growth with daily media changes, cells were treated with various concentrations of benzopyrene dissolved in acetone, or acetone control in fresh media for 18 h, followed by removal and addition of DCF (SIGMA ALDRICH™) at 5 micromolar for 1 h. DCF was then removed and full media added for 1 h, followed by immediate mounting of cover slips in VectaShield (VECTOR LABS™ of Burlingame, Calif.) and viewing under FITC-viewing filter to determine fluorescence of ROS-modified DCF within cells. […]

Molecule	rescue of AMPK protein from down regulation (proteasome)	rescue of CREB protein from down regulation (proteasome)	rescue of PGC1α protein from down regulation (proteasome)	20S proteasome interaction with CREB ([1]; FIG. 6D)	NQO1 interaction with CREB ([1]; FIG. 6D)	20S proteasome interaction with AMPK ([1]; FIG. 6E)	NQO1 interaction with AMPK ([1]; FIG. 6E)	stress signaling (count of ROS-positive, DCF-positive cells normalized to wild-type) ([2]; 100 μM B[α]P, 18 h, cells from 24 week-old female mice, NQO1−/− vs wild-type, P<0.05, FIG. 3C)	susceptibility to B[α]P-induced generation of reactive oxygen species (ROS) ([2]; NQO1−/− bladder cells relative to wild-type bladder cells, ex vivo)
CC(C)C[C@@H](C=O)NC(=O)[C@H](CC(C)C)NC(=O)[C@H](CC(C)C)NC(=O)OCc1ccccc1 [MG-132] (Cbz-Leu-Leu-Leu-aldehyde)	rescued from down regulation	rescued from down regulation	not PGC1α proteins were rescued from down regulation	–	–	–	–	–	–
benzo[α]pyrene [B[α]P]	–	–	–	more or less did not change	appears to be increased during stress conditions	more or less did not change	appears to be increased during stress conditions	significantly stronger stress than does wild-type	markedly increased susceptibility

Source: patent US20120208767A1, “Method to Detect or Treat Painful Bladder Syndrome based on Relation to Quinone Oxidoreductase 1” (University of Maryland, Baltimore, priority 2011, published 2012)
